Experiment [1] addresses T1, human recombinant 5-HT2A receptor (Homo sapiens, UniProt P28223).
T1 construct: expressed in transfected cells; host or cells: Jump-In HEK cells (membrane preparation)
The experiment in a line: Test Example 1-2: 5-HT2A receptor binding inhibition test ([3H]-Ketanserin; non-specific ligand Ketanserin). Conditions: [3H]-Ketanserin; non-specific binding with 500 µmol/L Ketanserin; room temperature (25°C), 1.5 hours; read-out: h 5-HT2A Ki. A digest of the protocol: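 Ki values were derived from dose-response inhibition of [3H]-ketanserin binding; nonspecific binding was set with 500 µmol/L ketanserin, and Kd was set for each membrane lot from Scatchard saturation plots. Incubation lasted 1.5 h at room temperature (25 °C). Bound radioligand was harvested on Tris-HCl (pH 7.4)-presoaked filters and counted.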

Experiment [2] deals with T2, human recombinant 5-HT2C receptor (Homo sapiens, UniProt P28335).
T2 construct: expressed in transfected cells; host or cells: Jump-In HEK cells (membrane preparation)
T2 sequence (P28335 33-458): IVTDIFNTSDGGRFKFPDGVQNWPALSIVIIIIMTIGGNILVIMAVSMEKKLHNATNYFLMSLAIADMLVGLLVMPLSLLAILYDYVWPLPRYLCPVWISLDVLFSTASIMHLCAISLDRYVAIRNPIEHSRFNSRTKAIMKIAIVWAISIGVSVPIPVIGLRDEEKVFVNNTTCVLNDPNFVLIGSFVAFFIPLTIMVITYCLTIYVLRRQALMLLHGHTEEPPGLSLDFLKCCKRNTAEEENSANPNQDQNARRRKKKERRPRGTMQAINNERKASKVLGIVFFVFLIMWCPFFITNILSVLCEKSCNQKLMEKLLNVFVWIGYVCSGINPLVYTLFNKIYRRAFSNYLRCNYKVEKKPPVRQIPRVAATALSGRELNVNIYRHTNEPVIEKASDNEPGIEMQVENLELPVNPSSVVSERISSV
Briefly: Test Example 2: 5-HT2C receptor binding inhibition test ([3H]-Mesulergine; non-specific ligand Serotonin HCl). Conditions: human serotonin 5-HT2C receptor binding activity. A digest of the protocol: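 Ki values come from dose-response curves of [3H]-mesulergine displacement from human 5-HT2C membranes after 2 h at 37°C, scored by scintillation counting of filter-bound radioactivity. Serotonin HCl (500 µmol/L) set non-specific binding; Kd per membrane lot was taken from Scatchard plots.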

T1 sequence (P28223 whole entry): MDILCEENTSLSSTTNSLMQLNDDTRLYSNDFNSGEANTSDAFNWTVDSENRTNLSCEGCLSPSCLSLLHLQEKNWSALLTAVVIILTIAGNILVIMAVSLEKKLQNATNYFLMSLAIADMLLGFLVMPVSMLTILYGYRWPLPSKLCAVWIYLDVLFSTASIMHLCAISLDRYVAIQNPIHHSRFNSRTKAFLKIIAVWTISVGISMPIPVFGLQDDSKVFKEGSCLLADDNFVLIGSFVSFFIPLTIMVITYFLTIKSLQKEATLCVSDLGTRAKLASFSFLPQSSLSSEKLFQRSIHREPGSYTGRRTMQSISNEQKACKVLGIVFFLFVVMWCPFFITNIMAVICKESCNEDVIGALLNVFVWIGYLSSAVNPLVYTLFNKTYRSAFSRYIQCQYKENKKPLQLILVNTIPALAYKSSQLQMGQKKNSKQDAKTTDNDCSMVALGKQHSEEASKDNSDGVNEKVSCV

With `Cn1ncc(Br)c1-c1cc(Nc2cc(C(F)(F)F)c(Cl)cn2)ncc1OCCO` [Compound I-275], the Ki in experiment [1] turned out to be 0.273 nM; in experiment [2] it was 0.722 nM.

On to `Cn1ncc(Br)c1-c1cc(Nc2cc(C(F)(F)F)ccn2)c(F)cc1OCCO` [Compound I-407], for which the Ki in experiment [1] amounted to 0.225 nM; in experiment [2], 3.64 nM.

Consider `COc1nc(C)c(-c2cc(Nc3ncc(C(F)(F)F)cc3Cl)ncc2OCCO)c(C)n1` [Compound I-210], for which the results for the Ki in experiment [1] and in experiment [2] were 0.804 nM and 3.67 nM, respectively.

Take `COC(=O)c1ccc(C)c(-c2cc(Nc3ncc(C(F)(F)F)cc3F)ncc2OCCO)c1` [Compound I-369]: the values for the Ki in experiment [1] and in experiment [2] were 1.72 nM and 58.2 nM, respectively.

Turning to `Cc1nc(C2CC2)nc(C)c1-c1cc(Nc2ncc(C(F)(F)F)cc2Cl)ncc1OCCO` [Compound I-206], the Ki in experiment [1] is 1.3 nM; in experiment [2], 1.78 nM.

`Cn1ncc(Br)c1-c1nc(Nc2ccc(Cl)c(C(F)(F)F)c2)ncc1OCCO` [Compound I-350]: the Ki was 0.204 nM in experiment [1] and 6.51 nM in experiment [2].

Turning to `Cc1nc(C)c(-c2nc(Nc3ccc(C(F)(F)F)c(C)n3)c(F)cc2OCCO)c(C)n1` [Compound I-384], the Ki in experiment [1] was 2.87 nM; in experiment [2], 4.58 nM.

On to `Cc1nc(OC2COC2)nc(C)c1-c1cc(Nc2ncc(C(F)(F)F)cc2Cl)ncc1OCCO` [Compound I-220], for which the Ki in experiment [1] was found to be 1.39 nM; in experiment [2], 5.91 nM.

As for `COCc1nc(C)c(-c2cc(Nc3ncc(C4CC4(F)F)cc3Cl)ncc2OCCO)c(C)n1` (racemic) [Compound I-194], the Ki in experiment [1] came to 8.31 nM; in experiment [2], 6.01 nM.

`Cn1ncc(Br)c1-c1cc(Nc2ccc(Cl)cn2)c(Cl)cc1OCCO` [Compound I-401]: the Ki was found to be 0.211 nM in experiment [1] and 0.849 nM in experiment [2].

Regarding `COCc1nc(C)c(-c2cc(Nc3ncc(-c4cccc(F)c4F)cc3Cl)ncc2OCCO)c(C)n1` [Compound I-259], the Ki in experiment [1] turned out to be 0.672 nM; in experiment [2], 0.623 nM.

Take `Cn1ncc(Br)c1-c1nc(Nc2cnc(C(F)(F)F)nc2)c(F)cc1OCCO` [Compound I-289]: the results for the Ki in experiment [1] and in experiment [2] were 0.793 nM and 60.2 nM, respectively.

As for `O=C1NCc2c1cccc2-c1cc(Nc2ncc(C(F)(F)F)cc2F)ncc1OCCO` [Compound I-358], the inhibition constant Ki is 0.603 nM in experiment [1] and 5.78 nM in experiment [2].

With `CCc1coc(-c2cnc(Nc3cc(-c4c(C)nc(COC)nc4C)c(OCCO)cn3)c(Cl)c2)n1` [Compound I-331], the results for the Ki in experiment [1] and in experiment [2] were 1.91 nM and 1.66 nM, respectively.

In the case of `Cc1nc(OCC(F)F)nc(C)c1-c1cc(Nc2ncc(C(F)(F)F)cc2Cl)ncc1OCCO` [Compound I-211], the Ki was 0.706 nM in experiment [1] and 1.89 nM in experiment [2].

Regarding `COCc1nc(C)c(-c2cc(Nc3ncc(Br)cc3Cl)ncc2OCCO)c(C)n1` [Compound I-323], the Ki in experiment [1] stood at 2.14 nM; in experiment [2], 2.81 nM.

Regarding `Cc1cnn(C)c1-c1cc(Nc2ncc(Cl)cc2F)c(F)cc1OCCO` [Compound I-160], the Ki was 0.21 nM in experiment [1] and 3.01 nM in experiment [2].

With `CC(C)Oc1ccc(Nc2cc(-c3c(Br)cnn3C)c(OCCO)cn2)nc1` [Compound I-182], the Ki in experiment [1] worked out at 0.475 nM; in experiment [2] it was 4.75 nM.

Consider `COCc1nc(C)c(-c2nc(Nc3ccc(OC(F)(F)F)c(C)n3)c(F)cc2OCCO)c(C)n1` [Compound I-395], for which the Ki in experiment [1] was determined as 3.37 nM; in experiment [2], 1.84 nM.

For the compound `Cn1ncc(Br)c1-c1cc(Nc2ncc(C(F)(F)F)cn2)c(Cl)cc1OCCO` [Compound I-397], the values for the Ki in experiment [1] and in experiment [2] were 0.413 nM and 1.8 nM, respectively.

As to `Cc1nc(C)c(-c2cc(Nc3ncc(-c4ccc(F)cc4)cc3C)ncc2OCCO)c(C)n1` [Compound I-318], the values for the inhibitory constant (Ki) in experiment [1] and in experiment [2] were 0.575 nM and 1.04 nM, respectively.

As for `Cn1ncc(Br)c1-c1nc(Nc2ccc(C(F)(F)F)cn2)ncc1OCCO` [Compound I-337], the Ki in experiment [1] was determined as 0.313 nM; in experiment [2], 7.18 nM.

On to `Cc1nc(C)c(-c2cc(Nc3ncc(-c4ccc(F)cc4)cc3F)ncc2OCCO)c(C)n1` [Compound I-316], for which the Ki in experiment [1] amounted to 0.506 nM; in experiment [2], 0.864 nM.

`Cn1ncc(Br)c1-c1nc(Nc2ccc(C#N)cc2F)ncc1OCCO` [Compound I-354]: the results for the Ki in experiment [1] and in experiment [2] were 0.319 nM and 8.53 nM, respectively.

On to `Cc1nc(OCC2COC2)nc(C)c1-c1cc(Nc2ncc(C(F)(F)F)cc2Cl)ncc1OCCO` [Compound I-219], for which the Ki in experiment [1] turned out to be 1.25 nM; in experiment [2] it was 6.28 nM.

For the compound `COCc1nc(C)c(-c2cc(Nc3ncc(OCC(F)(F)F)cc3Cl)ncc2OCCO)c(C)n1` [Compound I-232], the Ki in experiment [1] came to 8.27 nM; in experiment [2], 6.06 nM.

As for `COc1nc(C)nc(OC)c1-c1cc(Nc2ncc(C(F)(F)F)cc2Cl)ncc1OCCO` [Compound I-380], the Ki is 0.527 nM in experiment [1] and 7.28 nM in experiment [2].

On to `COCc1nc(C)c(-c2nc(Nc3ccc(C4CCC4)cn3)c(F)cc2OCCO)c(C)n1` [Compound I-193], for which the Ki is 3.43 nM in experiment [1] and 3.76 nM in experiment [2].

For the compound `Cc1nc(N2CCCC2=O)nc(C)c1-c1cc(Nc2ncc(C(F)(F)F)cc2Cl)ncc1OCCO` [Compound I-215], the Ki in experiment [1] was 4.48 nM; in experiment [2] it was 9.55 nM.

Turning to `Cc1nc(COC2CCOCC2)nc(C)c1-c1cc(Nc2ncc(C(F)(F)F)cc2Cl)ncc1OCCO` [Compound I-381], the Ki in experiment [1] was 2.66 nM; in experiment [2], 3.58 nM.

For the compound `Cc1nc(OCC2CCCO2)nc(C)c1-c1cc(Nc2ncc(C(F)(F)F)cc2Cl)ncc1OCCO` (racemic) [Compound I-214], the inhibition constant Ki in experiment [1] turned out to be 1.66 nM; in experiment [2], 8.87 nM.

For `COCc1ccc(-c2cnc(Nc3cc(-c4c(C)nc(COC)nc4C)c(OCCO)cn3)c(Cl)c2)cc1` [Compound I-264], the Ki is 0.752 nM in experiment [1] and 0.709 nM in experiment [2].

On to `Cc1nc(C)c(-c2nc(Nc3ccc(OC(F)(F)F)c(C)n3)c(F)cc2OCCO)c(C)n1` [Compound I-383], for which the Ki worked out at 2.57 nM in experiment [1] and 4.59 nM in experiment [2].

As for `Cc1nc(C)c(-c2nc(Nc3ccc(OC(F)(F)F)cc3)ncc2OCCO)c(C)n1` [Compound I-357], the figures for the Ki in experiment [1] and in experiment [2] were 0.635 nM and 3.07 nM, respectively.

As for `Cn1ncc(C#N)c1-c1cc(Nc2ccc(-c3ccc(F)cc3)cn2)ncc1OCCO` [Compound I-188], the Ki in experiment [1] amounted to 0.181 nM; in experiment [2], 1.87 nM.

In the case of `Cc1nc(C)c(-c2cc(Nc3ccc(Cl)cn3)c(F)cc2OCCO)c(C)n1` [Compound I-167], the values for the Ki in experiment [1] and in experiment [2] were 0.511 nM and 5.37 nM, respectively.

For `Cc1cc(C#N)ccc1Nc1ncc(OCCO)c(-c2c(Br)cnn2C)n1` [Compound I-355], the Ki in experiment [1] is 0.398 nM; in experiment [2], 8.2 nM.

Regarding `Cn1ncc(Br)c1-c1cc(Nc2ccc(OCC(F)(F)F)cn2)ncc1OCCO` [Compound I-307], the Ki came out at 0.221 nM in experiment [1] and 0.715 nM in experiment [2].

`Cn1ncc(Br)c1-c1nc(Nc2ccc(OC(F)(F)F)cc2)ncc1OCCO` [Compound I-347]: the inhibition constant Ki in experiment [1] was determined as 0.262 nM; in experiment [2] it was 1.08 nM.

Turning to `Cn1ncc(Br)c1-c1cc(Nc2ccc(OC3CC3)cn2)ncc1OCCO` [Compound I-185], the Ki in experiment [1] stood at 0.42 nM; in experiment [2], 2.76 nM.

Take `Cn1ncc(Br)c1-c1cc(Nc2ccc(OC(C)(F)F)cn2)ncc1OCCO` [Compound I-301]: the Ki came out at 0.189 nM in experiment [1] and 1.38 nM in experiment [2].

For `COCc1nc(C)c(-c2cc(Nc3ncc(-c4cc(F)cc(F)c4)cc3Cl)ncc2OCCO)c(C)n1` [Compound I-258], the Ki was determined as 0.933 nM in experiment [1] and 0.301 nM in experiment [2].

For `Cc1nc(C)c(-c2cc(Nc3ncc(C(F)(F)F)cc3Cl)ncc2OCCO)c(C)n1` [Compound I-390], the Ki in experiment [1] is 1.08 nM; in experiment [2] it was 3.91 nM.

With `COCc1nc(C)c(-c2cc(Nc3ncc(-c4cccc(C#N)c4)cc3Cl)ncc2OCCO)c(C)n1` [Compound I-260], the values for the Ki in experiment [1] and in experiment [2] were 2.05 nM and 2.06 nM, respectively.

Regarding `COCc1nc(C)c(-c2cc(Nc3ncc(-c4ncc(Cl)cn4)cc3Cl)ncc2OCCO)c(C)n1` [Compound I-239], the Ki is 2.3 nM in experiment [1] and 1.35 nM in experiment [2].

Consider `COCc1nc(C)c(-c2cc(Nc3ncc(-c4ccc(C(F)F)cc4)cc3Cl)ncc2OCCO)c(C)n1` [Compound I-242], for which the Ki in experiment [1] is 0.258 nM; in experiment [2], 0.337 nM.

On to `COCc1nc(C)c(-c2cc(Nc3ncc(-c4cccc(F)c4)cc3Cl)ncc2OCCO)c(C)n1` [Compound I-257], for which the Ki in experiment [1] was 0.395 nM; in experiment [2] it was 0.316 nM.

With `COCc1nc(C)c(-c2cc(Nc3ncc(-c4ccc(F)cc4)cc3Cl)ncc2OCCO)c(C)n1` [Compound I-230], the results for the Ki in experiment [1] and in experiment [2] were 0.576 nM and 0.372 nM, respectively.

As to `Cn1ncc(Br)c1-c1nc(Nc2ccc(C(F)(F)F)cc2F)ncc1OCCO` [Compound I-338], the Ki in experiment [1] amounted to 0.223 nM; in experiment [2] it was 0.765 nM.

Values taken from EP4631938A1, “NITROGEN-CONTAINING HETEROCYCLE WITH SEROTONIN RECEPTOR-BINDING ACTIVITY AND CARBOCYCLIC DERIVATIVE” (Shionogi & Co., Ltd, priority 2022, dated 2024).
